The source of these data is publication PMC8991960, “A Bivalent Activatable Fluorescent Probe for Screening and Intravital Imaging of Chemotherapy‐Induced Cancer Cell Death” (Angewandte Chemie (International Ed. in English), 2021).

The nature of data set [1]: Stability analysis in mouse serum. Format: in vitro ADME. The conditions noted are these: mouse serum vs PBS, 24 h, 37 °C, 500 rpm; 25 µM (Figure S14) or 50 µM (method); HPLC after CH3CN protein precipitation, and fluorescence (exc 520 nm). From the text: Optical intravital imaging is increasingly used for the preclinical evaluation of anticancer drugs in vivo. Although imaging modalities like computed tomography, positron emission tomography and magnetic resonance imaging can help to visualise whole intact organs in a non‐invasive manner,[26] they lack the spatiotemporal resolution needed to study dynamic interactions between individual tumour and stromal cells. This feature is critical to understand the mechanism of action of anticancer drugs and how they can affect interactions between cancer cells and immune cells in the tumour microenvironment.[27] Intravital imaging heavily relies on the acquisition of fluorescence signals using multiphoton microscopy, which provides cellular resolution with deep tissue penetration (≈500 μm) and minimal photodamage.[28] […] First, we analysed the chemical stability of Apotracker Red for in vivo studies by incubating the probe in mouse serum. […] When primary tumours measured around 0.5–1 cm in diameter, we administered cisplatin intraperitoneally (10 mg kg^−1). […]
fluorescence emission of Apotracker Red before and after incubation in mouse serum and […]
Fluorescence spectra were recorded after excitation at 520 nm. […]
Lipid layer assays . […] The LoD was calculated using the equation LoD = (3 × σ)/k, where σ is the standard […]

The subject of the next data set is MCF7 cells. Put plainly: Cell viability (TACS MTT cell proliferation assay). Particulars: MCF7, different concentrations, 3 h, n=5. The data set is classed as cell-based, human. The procedure:
(§1) Figure S15. Cell viability experiments (TACS® MTT cell proliferation assay) after incubation of Apotracker Red in breast cancer cell lines (a: MCF7 cells, b: MDA-MB-231 cells) at different concentrations for 3 h. Data presented as means ± SD (n=5). P values obtained from one- way ANOVA using multiple comparisons (ns for p>0.05).
(§2) Figure S16. Quantification of E GFP+ macrophages in tumours from untreated and cisplatin-treated mice by time- lapse imaging on a spinning disk confocal microscope (λexc: 488 nm). Data presented as means ± SD of 8 random areas in 2- 3 mice per group (untreated or treated with 10 μg g-1 cisplatin for 72 h). […]
For orientation: Formazan colour is commonly taken as a measure of viable cells.

A further data set concerns MDA-MB-231 cells. Put plainly: Cell viability (TACS MTT cell proliferation assay). The data set is classed as cell-based, human. Particulars: MDA-MB-231, different concentrations, 3 h, n=5. The procedure:
as §1, §2

Starred links: 1 amine or outer side, 2 acyl side, 3 side chain; linkers in the order of their positions; H or OH if unused. Non-standard residues stand in square brackets, D forms with d. Residues, ends and D or L forms follow the SMILES beside them. X1 = CC1=CC(C)=[N+]2C1=C(c1cccc(-c3[nH]c4ccccc4c3C[C@H](N[*:1])C(=O)[*:2])c1)c1ccc(-c3ccc(C)s3)n1[B-]2(F)F

Regarding `CC1=CC(C)=[N+]2C1=C(c1cccc(-c3[nH]c4ccccc4c3C[C@@H]3NC(=O)[C@H](Cc4ccccc4)NC(=O)[C@H](Cc4c[nH]c5ccccc45)NC(=O)[C@H](CCCCN)NC(=O)[C@H](CCCCN)NC(=O)[C@H](CCCNC(=N)N)NC(=O)CNC3=O)c1)c1ccc(-c3ccc(C)s3)n1[B-]2(F)F` [Apotracker Red] (cyclo(F[X1]GRKKW)), the “Proteolytic stability in mouse serum” value in data set [1] is “good proteolytic stability for up to 24 h”. The “Cell toxicity (MTT)” value in the data set on MCF7 cells and in the data set on MDA-MB-231 cells was “did not cause cell toxicity” throughout.
